{"source": "paper PMC11631053", "about": "“A receptor-based assay to study the sweet and bitter tastes of sweeteners and binary sweet blends: the SWEET project” (Chemical Senses, 2024)", "molecular_target": "TAS2R38-AVI (Homo sapiens, UniProt P59533, A262V)", "sequence (P59533 whole entry A262V)": "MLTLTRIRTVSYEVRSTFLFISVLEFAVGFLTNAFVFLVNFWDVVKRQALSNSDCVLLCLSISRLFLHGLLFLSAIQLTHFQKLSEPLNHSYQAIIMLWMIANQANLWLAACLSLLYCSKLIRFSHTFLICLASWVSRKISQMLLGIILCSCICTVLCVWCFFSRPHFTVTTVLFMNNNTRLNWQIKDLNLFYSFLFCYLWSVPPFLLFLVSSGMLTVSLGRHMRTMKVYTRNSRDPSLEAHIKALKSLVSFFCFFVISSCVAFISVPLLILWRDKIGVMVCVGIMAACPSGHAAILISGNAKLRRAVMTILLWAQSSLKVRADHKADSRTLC", "assay": "Calcium mobilization assay, HEK293T-Gα16gust44 cells expressing TAS2R38-AVI", "experimental": "Different concentration ranges were tested depending on the injected sweet compound. […] All of the concentration-receptor combinations were measured in triplicate, and each experiment was repeated at least 3 times. The Ca^2+ change was expressed as a fractional change in fluorescent light intensity: ΔF/F = (F − F0)/F0, where F was the fluorescent light intensity at each point, and F0 was the value of fluorescent light emitted prior to stimulus application. To calculate dose–response relationships, the changes in fluorescence upon stimulus application were averaged, mock-subtracted and baseline-corrected. The resulting obtained dose–response data were adjusted by using a 4-parameter logistic equation. The half-maximal effective concentration (EC50) was calculated by using SigmaPlot software (Systat Software, San Jose, CA, USA) as described in supplemental Supplementary Figs. S1, S2, and S3.", "data": [{"smiles": "O=C(CO)[C@H](O)[C@H](O)[C@H](O)CO", "note": "[D-allulose]", "values": [{"measurement": "concentrations at which TAS2R38-AVI was activated", "value": "> 300", "unit": "mM"}]}]}
